Data set [1] is described as follows: Cytotoxicity against human HPAEpic cells assessed as reduction in cell viability after 24 hrs by MTT assay. The format is cell-based. The note with it: for CC50: 24 h. For orientation: Formazan colour is commonly taken as a measure of viable cells.
Data set [2] can be described thus: Cytotoxicity against human IOSE-80 cells assessed as reduction in cell viability after 24 hrs by MTT assay. The format is cell-based. The note with it: for CC50: 24 h.
The next data set concerns GES1. Description: (§1) Cytotoxicity against human GES-1 cells assessed as reduction in cell viability after 24 hrs by MTT assay. The format is cell-based. The settings on record: ges1, 24 h.
A further data set has as its system L02. The data set can be described thus: (§2) Cytotoxicity against human L02 cells assessed as reduction in cell viability after 24 hrs by MTT assay. The note with it: l02, 24 h. The format is cell-based.
Data set [3] has as its system A549. The data set can be described thus: cells. The settings on record: Homo sapiens, A549, 24 h.
Description: Antiproliferative activity against human A549 cells assessed as reduction in cell viability after 24 hrs by MTT assay
The subject of another data set is OVCAR-3. Description: cells. The note with it: Homo sapiens, OVCAR-3, 24 h.
Another data set concerns SGC-7901. The data set can be described thus: cells. The settings on record: Homo sapiens, SGC-7901, 24 h.
Another data set has as its system HepG2. The data set can be described thus: cells. The settings on record: Homo sapiens, HepG2, 24 h.
Data set [4] is described as follows: as §1. The note with it: GES-1 cells. The format is cell-based, GES1.
A short description of data set [5]: as §2. The format is cell-based. The settings on record: L02 cells.
The test system of data set [6] is A549. Description: Antiproliferative activity against human A549 cells assessed as reduction in cell viability at 0.625 uM after 24 hrs by MTT assay. The format is functional. The note with it: A549, 24 h.
Data set [7] concerns A549. Description: Antiproliferative activity against human A549 cells assessed as reduction in cell viability at 1.25 uM after 24 hrs by MTT assay. The format is functional. The note with it: A549, 24 h.
In data set [8] the test system is A549. Description: Antiproliferative activity against human A549 cells assessed as reduction in cell viability at 5 uM after 24 hrs by MTT assay. The format is functional. The note with it: A549, 24 h.
The subject of data set [9] is A549. Description: Antiproliferative activity against human A549 cells assessed as reduction in cell viability at 10 uM after 24 hrs by MTT assay. The settings on record: A549, 24 h. The format is functional.
Data set [10] has as its system A549. Description: Antiproliferative activity against human A549 cells assessed as reduction in cell viability at 20 uM after 24 hrs by MTT assay. The format is functional. The note with it: A549, 24 h.
Data set [11] relates to A549. Description: Cell cycle arrest in human A549 cells assessed as increase in G0/G1 phase at 0.5 to 1.5 uM after 24 hrs by propidium iodide staining based flow cytometric analysis. The format is functional. Background: Flow cytometry measures light scatter and fluorescence of single cells or particles in a stream.
Data set [12] has as its system A549. The data set can be described thus: Cell cycle arrest in human A549 cells assessed as decrease in S phase at 0.5 to 1.5 uM after 24 hrs by propidium iodide staining based flow cytometric analysis. The format is functional.
Data set [13] has as its system A549. The data set can be described thus: Cell cycle arrest in human A549 cells assessed as decrease in G2/M phase at 0.5 to 1.5 uM after 24 hrs by propidium iodide staining based flow cytometric analysis. The format is functional.
Data set [14] concerns A549. Description: Cell cycle arrest in human A549 cells assessed as decrease in Cyclin D protein expression at 0.5 to 1.5 uM after 24 hrs by Western blot analysis. The format is functional, cell-based. (A western blot detects proteins with antibodies after separation by electrophoresis.)
Data set [15] concerns A549. The data set can be described thus: Cell cycle arrest in human A549 cells assessed as decrease in Cyclin E protein expression at 0.5 to 1.5 uM after 24 hrs by Western blot analysis. The format is functional, cell-based.
The test system of data set [16] is A549. The data set can be described thus: Induction of apoptosis in human A549 cells assessed as viable cells at 0.5 uM after 24 hrs by Annexin V-FITC/propidium iodide staining based flow cytometric analysis (reference value: 98.2%). The format is functional. The note with it: A549, 24 h, read-out: Activity.
The subject of data set [17] is A549. Description: Induction of apoptosis in human A549 cells assessed as early apoptotic cells at 0.5 uM after 24 hrs by Annexin V-FITC/propidium iodide staining based flow cytometric analysis (reference value: 0.6%). The format is functional.
Data set [18] has as its system A549. The data set can be described thus: Induction of apoptosis in human A549 cells assessed as late apoptotic cells at 0.5 uM after 24 hrs by Annexin V-FITC/propidium iodide staining based flow cytometric analysis (reference value: 1.1%). The format is functional.
Data set [19] has as its system A549. The data set can be described thus: Induction of apoptosis in human A549 cells assessed as necrotic cells at 0.5 uM after 24 hrs by Annexin V-FITC/propidium iodide staining based flow cytometric analysis (reference value: 0.1%). The format is functional.
Data set [20] deals with A549. The data set can be described thus: Induction of apoptosis in human A549 cells assessed as viable cells at 1 uM after 24 hrs by Annexin V-FITC/propidium iodide staining based flow cytometric analysis (reference value: 98.2%). The format is functional. The note with it: A549, 24 h, read-out: Activity.
Data set [21] relates to A549. Description: Induction of apoptosis in human A549 cells assessed as early apoptotic cells at 1 uM after 24 hrs by Annexin V-FITC/propidium iodide staining based flow cytometric analysis (reference value: 0.6%). The format is functional.
The subject of data set [22] is A549. Description: Induction of apoptosis in human A549 cells assessed as late apoptotic cells at 1 uM after 24 hrs by Annexin V-FITC/propidium iodide staining based flow cytometric analysis (reference value: 1.1%). The format is functional.
In data set [23] the test system is A549. The data set can be described thus: Induction of apoptosis in human A549 cells assessed as necrotic cells at 1 uM after 24 hrs by Annexin V-FITC/propidium iodide staining based flow cytometric analysis (reference value: 0.1%). The format is functional.
The test system of data set [24] is A549. The data set can be described thus: Induction of apoptosis in human A549 cells assessed as viable cells at 1.5 uM after 24 hrs by Annexin V-FITC/propidium iodide staining based flow cytometric analysis (reference value: 98.2%). The settings on record: A549, 24 h, read-out: Activity. The format is functional.
Data set [25] has as its system A549. Description: Induction of apoptosis in human A549 cells assessed as early apoptotic cells at 1.5 uM after 24 hrs by Annexin V-FITC/propidium iodide staining based flow cytometric analysis (reference value: 0.6%). The format is functional.
In data set [26] the test system is A549. The data set can be described thus: Induction of apoptosis in human A549 cells assessed as late apoptotic cells at 1.5 uM after 24 hrs by Annexin V-FITC/propidium iodide staining based flow cytometric analysis (reference value: 1.1%). The format is functional.
The subject of data set [27] is A549. The data set can be described thus: Induction of apoptosis in human A549 cells assessed as necrotic cells at 1.5 uM after 24 hrs by Annexin V-FITC/propidium iodide staining based flow cytometric analysis (reference value: 0.1%). The format is functional.
Data set [28] has as its system A549. The data set can be described thus: Induction of apoptosis in human A549 cells assessed as up regulation of Bax protein expression at 0.5 to 1.5 uM after 24 hrs by Western blot analysis. The format is functional, cell-based.
Data set [29] deals with A549. Description: Induction of apoptosis in human A549 cells assessed as down regulation of Bcl-2 protein expression at 0.5 to 1.5 uM after 24 hrs by Western blot analysis. The format is functional, cell-based.
Data set [30] relates to A549. Description: Induction of apoptosis in human A549 cells assessed as activation of caspase-3 protein level at 0.5 to 1.5 uM after 24 hrs by Western blot analysis. The format is functional, cell-based.
Data set [31] concerns A549. The data set can be described thus: Induction of apoptosis in human A549 cells assessed as increase in cleaved caspase-3 protein level at 0.5 to 1.5 uM after 24 hrs by Western blot analysis. The format is functional, cell-based.
Data set [32] concerns A549. The data set can be described thus: Induction of apoptosis in human A549 cells assessed as decrease in ratio of Bcl-2/Bax at 0.5 to 1.5 uM after 24 hrs by Western blot analysis. The format is functional, cell-based.
For data set [33], the system named is A549. The data set can be described thus: Induction of early apoptosis in human A549 cells after 24 hrs by Annexin V-FITC/propidium iodide staining based flow cytometric analysis. The format is functional, cell-based.
Data set [34] has as its system A549. Description: Induction of late apoptosis in human A549 cells after 24 hrs by Annexin V-FITC/propidium iodide staining based flow cytometric analysis. The format is functional, cell-based.

The source made the active and inactive calls. The calls are words filed in the database; no cut-off is given here. Bounds are passed on as bounds.

Description for HepG2: Antiproliferative activity against human HepG2 cells assessed as reduction in cell viability after 24 hrs by MTT assay
Description for OVCAR-3: Antiproliferative activity against human OVCAR3 cells assessed as reduction in cell viability after 24 hrs by MTT assay
Description for SGC-7901: Antiproliferative activity against human SGC7901 cells assessed as reduction in cell viability after 24 hrs by MTT assay

`Cc1ccccc1-n1cc(-c2ccc(NS(=O)(=O)c3c[nH]c(=O)[nH]c3=O)cc2)nn1`: the cytotoxic concentration (CC50) result (in data set [1]; in data set [2]; in the data set on GES1; in the data set with L02) was “Non-Toxic” each time. For the same compound, the IC50 (in general, the concentration needed to halve the response being measured) with A549 [3] came out at 3.13 µM; with OVCAR-3, 7.31 µM; in the data set with SGC-7901, 13.6 µM; in the data set with HepG2 it was 14.5 µM.
Consider `O=c1[nH]cc(S(=O)(=O)Nc2ccccc2-c2cn(-c3ccc(Cl)cc3)nn2)c(=O)[nH]1`, for which the CC50 (in general, the concentration that lowers cell viability or growth by half) at 24 h in [1] (HPAEpic cells) was determined as 20.4 µM; in [2] (IOSE-80 cells) it was 16.5 µM; in data set [4], 26.7 µM; in [5], 16.8 µM. For the same compound, in the data set with A549 [6], the inhibition – broadly, the relative decrease from the control value, in per cent – at 0.625 µM stood at 32%. Also, in the data set on A549 [7], the inhibition at 1.25 µM was found to be 55.5%. Moreover, in the data set with A549 [8], the inhibition at 5 µM was determined as 75.5%. Moreover, in the data set with A549 [9], the inhibition at 10 µM is 77.3%. The inhibition at 20 µM in the data set with A549 [10] was found to be 80.2%. The Activity entry in the data set with A549 [11] was “Dose-dependent effect”; in the data set with A549 [12], “Dose-dependent effect”; in the data set on A549 [13] it was “Dose-dependent effect”; in the data set with A549 [14], “Dose-dependent effect”; with A549 [15] it was “Dose-dependent effect”; in the data set on A549 [17], 1.3%. The Activity in the data set with A549 [18] was 2.1%; in the data set with A549 [19], 0.1%; in the data set with A549 [21] it was 3.5%; in the data set with A549 [22] it was 5.6%; in the data set on A549 [23], 1.2%; in the data set on A549 [25], 4.1%. In addition, the Activity was 7.1% in the data set on A549 [26], 4.5% in the data set on A549 [27], “Dose-dependent effect” in the data set on A549 [33] and “Dose-dependent effect” with A549 [34]. Moreover, the viability at 0.5 µM in the data set with A549 [16] stood at 96.5%. Moreover, the viability at 1 µM with A549 [20] worked out at 89.7%. The viability at 1.5 µM in the data set on A549 [24] was determined as 84.2%. In addition, the outcome with A549 [28], in the data set with A549 [29], in the data set with A549 [30], in the data set on A549 [31] and with A549 [32] was Active. For the same compound, the IC50 came to 1.18 µM with A549 [3], 1.75 µM in the data set with OVCAR-3, 2.7 µM in the data set on SGC-7901 and 1.84 µM in the data set with HepG2.
In the case of `O=c1[nH]cc(S(=O)(=O)Nc2cccc(-c3cn(-c4ccc(F)cc4)nn3)c2)c(=O)[nH]1`, the 50% cytotoxic concentration (CC50) result (in data set [1]; in data set [2]; with GES1; in the data set on L02) was “Non-Toxic” in each case. Moreover, the IC50 in the data set with A549 [3], in the data set on OVCAR-3, in the data set on SGC-7901 and with HepG2 was over 20 µM in each case.
In the case of `O=c1[nH]cc(S(=O)(=O)Nc2cccc(-c3cn(-c4ccccc4F)nn3)c2)c(=O)[nH]1`, the CC50 result (in data set [1]; in data set [2]; in the data set on GES1; with L02) was “Non-Toxic” in each case. Further, the IC50 was over 20 µM in the data set on A549 [3], 12.5 µM with OVCAR-3, 16 µM with SGC-7901 and 13.9 µM with HepG2.

For the origin of these results see ChEMBL document CHEMBL4346687, “Design, synthesis and biological evaluation of novel uracil derivatives bearing 1, 2, 3-triazole moiety as thymidylate synthase (TS) inhibitors and as potential antitumor drugs” (Eur J Med Chem, 2019).
